Reference: ChEMBL document CHEMBL1201861, “Genomics of Drug Sensitity in Cancer screening data, Wellcome Trust Sanger Institute”

Legend:
Assay in all cases: cells
Settings in all cases: Homo sapiens
[1] = tested on: BB49-HNC; assay type: functional, cell-based;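 also: cell viability assay read-out, reported as inhibition of BB49-HNC cell growth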
Description: SANGER: Inhibition of human BB49-HNC cell growth in a cell viability assay.

[2] = tested on: MFM-223; assay type: functional, cell-based
Description: SANGER: Inhibition of human MFM-223 cell growth in a cell viability assay.

[3] = tested on: A3-KAW; assay type: functional, cell-based;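 also: growth inhibition of human A3-KAW cells, read out with a cell viability assay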
Description: SANGER: Inhibition of human A3-KAW cell growth in a cell viability assay.

[4] = tested on: SCH; assay type: functional, cell-based;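 also: growth inhibition of human SCH cells, read out in a cell viability assay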
Description: SANGER: Inhibition of human SCH cell growth in a cell viability assay.

[5] = tested on: HL-60; assay type: functional, cell-based;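 also: growth inhibition of human HL-60 cells, read out with a cell viability assay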
Description: SANGER: Inhibition of human HL-60 cell growth in a cell viability assay.

[6] = tested on: NOMO-1; assay type: functional, cell-based;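 also: growth inhibition of human NOMO-1 cells measured by a cell viability assay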
Description: SANGER: Inhibition of human NOMO-1 cell growth in a cell viability assay.

[7] = tested on: D-263MG; assay type: functional, cell-based
Description: SANGER: Inhibition of human D-263MG cell growth in a cell viability assay.

[8] = tested on: COLO-824; assay type: functional, cell-based
Description: SANGER: Inhibition of human COLO-824 cell growth in a cell viability assay.

[9] = tested on: NCI-H82; assay type: functional, cell-based;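 also: growth inhibition of NCI-H82 cells, measured with a cell viability readout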
Description: SANGER: Inhibition of human NCI-H82 cell growth in a cell viability assay.

[10] = tested on: LAMA-84; assay type: functional, cell-based;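 also: growth inhibition of LAMA-84 cells, read out with a cell viability assay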
Description: SANGER: Inhibition of human LAMA-84 cell growth in a cell viability assay.

[11] = tested on: SK-LMS-1; assay type: functional, cell-based;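 also: growth inhibition of human SK-LMS-1 cells, read out with a cell viability assay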
Description: SANGER: Inhibition of human SK-LMS-1 cell growth in a cell viability assay.

[12] = tested on: KM12; assay type: functional, cell-based;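 also: KM12 cell growth inhibition, read out with a cell viability assay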
Description: SANGER: Inhibition of human KM12 cell growth in a cell viability assay.

[13] = tested on: C2BBe1; assay type: functional, cell-based;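 also: growth inhibition of C2BBe1 cells, read out through a viability assay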
Description: SANGER: Inhibition of human C2BBe1 cell growth in a cell viability assay.

[14] = tested on: RH-1; assay type: functional, cell-based;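 also: growth inhibition of human RH-1 cells, read out with a cell viability assay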
Description: SANGER: Inhibition of human RH-1 cell growth in a cell viability assay.

[15] = tested on: MMAC-SF; assay type: functional, cell-based;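 also: growth inhibition of human MMAC-SF cells, read out with a cell viability assay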
Description: SANGER: Inhibition of human MMAC-SF cell growth in a cell viability assay.

[16] = tested on: MHH-NB-11; assay type: functional, cell-based;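 also: growth inhibition of human MHH-NB-11 cells, read out by a cell viability assay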
Description: SANGER: Inhibition of human MHH-NB-11 cell growth in a cell viability assay.

[17] = tested on: NCI-H1304; assay type: functional, cell-based;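 also: growth inhibition of the cancer cell line, measured in a cell viability assay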
Description: SANGER: Inhibition of human NCI-H1304 cell growth in a cell viability assay.

[18] = tested on: MN-60; assay type: functional, cell-based;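 also: growth inhibition of the MN-60 cell line, determined with a cell viability assay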
Description: SANGER: Inhibition of human MN-60 cell growth in a cell viability assay.

[19] = tested on: CTV-1; assay type: functional, cell-based;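 also: growth inhibition of the cell line, read out with a cell viability assay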
Description: SANGER: Inhibition of human CTV-1 cell growth in a cell viability assay.

[20] = tested on: LB831-BLC; assay type: functional, cell-based;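 also: growth inhibition of LB831-BLC cells, read out with a cell viability assay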
Description: SANGER: Inhibition of human LB831-BLC cell growth in a cell viability assay.

[21] = tested on: ES5; assay type: functional, cell-based;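 also: growth inhibition of human ES5 cells, read out by a cell viability assay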
Description: SANGER: Inhibition of human ES5 cell growth in a cell viability assay.

[22] = tested on: 8-MG-BA; assay type: functional, cell-based;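 also: growth inhibition of 8-MG-BA cells, read out with a cell viability assay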
Description: SANGER: Inhibition of human 8-MG-BA cell growth in a cell viability assay.

[23] = tested on: MOLT-16; assay type: functional, cell-based;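 also: growth inhibition of human MOLT-16 cells, read out with a cell viability assay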
Description: SANGER: Inhibition of human MOLT-16 cell growth in a cell viability assay.

[24] = tested on: DSH1; assay type: functional, cell-based;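 also: growth inhibition of human DSH1 cells, measured with a cell viability readout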
Description: SANGER: Inhibition of human DSH1 cell growth in a cell viability assay.

[25] = tested on: COLO-684; assay type: functional, cell-based
Description: SANGER: Inhibition of human COLO-684 cell growth in a cell viability assay.

[26] = tested on: HuTu80; assay type: functional, cell-based, HUTU-80;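 also: growth inhibition of HuTu80 human cells, determined with a cell viability readout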
Description: SANGER: Inhibition of human HUTU-80 cell growth in a cell viability assay.

[27] = tested on: KNS-42; assay type: functional, cell-based;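 also: growth inhibition of KNS-42 cells, read out with a cell viability assay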
Description: SANGER: Inhibition of human KNS-42 cell growth in a cell viability assay.

[28] = tested on: KM-H2; assay type: functional, cell-based;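 also: growth inhibition of KM-H2 cells, read out by a cell viability assay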
Description: SANGER: Inhibition of human KM-H2 cell growth in a cell viability assay.

[29] = tested on: BV-173; assay type: functional, cell-based
Description: SANGER: Inhibition of human BV-173 cell growth in a cell viability assay.

[30] = tested on: BE-13; assay type: functional, cell-based;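 also: growth inhibition of human BE-13 cells, measured with a cell viability assay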
Description: SANGER: Inhibition of human BE-13 cell growth in a cell viability assay.

[31] = tested on: KARPAS-45; assay type: functional, cell-based;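 also: inhibition of cell line growth, read out through a viability assay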
Description: SANGER: Inhibition of human KARPAS-45 cell growth in a cell viability assay.

[32] = tested on: C8166; assay type: functional, cell-based;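 also: growth inhibition of human C8166 cells measured by a cell viability assay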
Description: SANGER: Inhibition of human C8166 cell growth in a cell viability assay.

[33] = tested on: NTERA-2-cl-D1; assay type: functional, cell-based;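 also: inhibition of cell growth, measured with a cell viability assay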
Description: SANGER: Inhibition of human NTERA-S-cl-D1 cell growth in a cell viability assay.

[34] = tested on: DOHH-2; assay type: functional, cell-based;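 also: growth inhibition of human DOHH-2 cells, read out with a cell viability assay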
Description: SANGER: Inhibition of human DOHH-2 cell growth in a cell viability assay.

[35] = tested on: ETK-1; assay type: functional, cell-based;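 also: growth inhibition of human ETK-1 cells, read out with a cell viability assay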
Description: SANGER: Inhibition of human ETK-1 cell growth in a cell viability assay.

[36] = tested on: CCRF-CEM; assay type: functional, cell-based;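 also: inhibition of CCRF-CEM cell growth, measured by a cell viability assay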
Description: SANGER: Inhibition of human CCRF-CEM cell growth in a cell viability assay.

[37] = tested on: GT3TKB; assay type: functional, cell-based;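 also: growth inhibition of the cell line, read out with a cell viability assay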
Description: SANGER: Inhibition of human GT3TKB cell growth in a cell viability assay.

[38] = tested on: SK-UT-1; assay type: functional, cell-based;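 also: growth inhibition of SK-UT-1 cells, measured by a cell viability assay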
Description: SANGER: Inhibition of human SK-UT-1 cell growth in a cell viability assay.

[39] = tested on: BT-474; assay type: functional, cell-based
Description: SANGER: Inhibition of human BT-474 cell growth in a cell viability assay.

[40] = tested on: EW-13; assay type: functional, cell-based;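 also: growth inhibition of EW-13 cells, read out with a cell viability assay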
Description: SANGER: Inhibition of human EW-13 cell growth in a cell viability assay.

[41] = tested on: LXF-289 cell line; assay type: functional, cell-based
Description: SANGER: Inhibition of human LXF-289 cell growth in a cell viability assay.

[42] = tested on: A388; assay type: functional, cell-based;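 also: growth inhibition of human A388 cells, read out with a cell viability assay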
Description: SANGER: Inhibition of human A388 cell growth in a cell viability assay.

[43] = tested on: TE-6; assay type: functional, cell-based;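 also: growth inhibition of TE-6 cells, read out with a cell viability assay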
Description: SANGER: Inhibition of human TE-6 cell growth in a cell viability assay.

[44] = tested on: SNU-5; assay type: functional, cell-based;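 also: cell viability readout used to measure growth inhibition in human NCI-SNU-5 cells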
Description: SANGER: Inhibition of human NCI-SNU-5 cell growth in a cell viability assay.

[45] = tested on: KY821; assay type: functional, cell-based;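 also: growth inhibition of human KY821 cells, read out by a cell viability assay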
Description: SANGER: Inhibition of human KY821 cell growth in a cell viability assay.

[46] = tested on: LB1047-RCC; assay type: functional, cell-based;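 also: inhibition of cell growth, determined with a cell viability assay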
Description: SANGER: Inhibition of human LB1047-RCC cell growth in a cell viability assay.

[47] = tested on: KMOE-2; assay type: functional, cell-based;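 also: growth inhibition of human KMOE-2 cells, read out with a cell viability assay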
Description: SANGER: Inhibition of human KMOE-2 cell growth in a cell viability assay.

[48] = tested on: IST-MEL1; assay type: functional, cell-based;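 also: growth inhibition of the cell line, read out with a cell viability assay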
Description: SANGER: Inhibition of human IST-MEL1 cell growth in a cell viability assay.

[49] = tested on: KE-37; assay type: functional, cell-based;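 also: growth inhibition of KE-37 cells, read out with a cell viability assay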
Description: SANGER: Inhibition of human KE-37 cell growth in a cell viability assay.

[50] = tested on: RCC10RGB; assay type: functional, cell-based;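 also: growth inhibition of human RCC10RGB cells, read out by a cell viability assay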
Description: SANGER: Inhibition of human RCC10RGB cell growth in a cell viability assay.

[51] = tested on: COR-L88; assay type: functional, cell-based;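 also: growth inhibition of COR-L88 cells, read out with a cell viability assay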
Description: SANGER: Inhibition of human COR-L88 cell growth in a cell viability assay.

[52] = tested on: HEL; assay type: functional, cell-based;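 also: growth inhibition of HEL cells, read out with a cell viability assay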
Description: SANGER: Inhibition of human HEL cell growth in a cell viability assay.

[53] = tested on: Mo; assay type: functional, cell-based
Description: SANGER: Inhibition of human Mo-T cell growth in a cell viability assay.

[54] = tested on: L-428; assay type: functional, cell-based
Description: SANGER: Inhibition of human L-428 cell growth in a cell viability assay.

[55] = tested on: MEG-01; assay type: functional, cell-based;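 also: growth inhibition of MEG-01 cells, read out by a cell viability assay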
Description: SANGER: Inhibition of human MEG-01 cell growth in a cell viability assay.

[56] = tested on: KS-1; assay type: functional, cell-based;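 also: growth inhibition of KS-1 cells, read out with a cell viability assay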
Description: SANGER: Inhibition of human KS-1 cell growth in a cell viability assay.

[57] = tested on: LNCaP-Clone-FGC; assay type: functional, cell-based
Description: SANGER: Inhibition of human LNCaP-Clone-FGC cell growth in a cell viability assay.

[58] = tested on: EW-1; assay type: functional, cell-based;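 also: growth inhibition of the human EW-1 cell line, read out by a cell viability assay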
Description: SANGER: Inhibition of human EW-1 cell growth in a cell viability assay.

[59] = tested on: OS-RC-2; assay type: functional, cell-based;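 also: growth inhibition of human OS-RC-2 cells, measured by a cell viability assay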
Description: SANGER: Inhibition of human OS-RC-2 cell growth in a cell viability assay.

[60] = tested on: JAR; assay type: functional, cell-based;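 also: growth inhibition of human JAR cells determined with a cell viability assay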
Description: SANGER: Inhibition of human JAR cell growth in a cell viability assay.

[61] = tested on: TE-10; assay type: functional, cell-based
Description: SANGER: Inhibition of human TE-10 cell growth in a cell viability assay.

[62] = tested on: OCUB-M; assay type: functional, cell-based
Description: SANGER: Inhibition of human OCUB-M cell growth in a cell viability assay.

[63] = tested on: ES4; assay type: functional, cell-based
Description: SANGER: Inhibition of human ES4 cell growth in a cell viability assay.

[64] = tested on: A498; assay type: functional, cell-based
Description: SANGER: Inhibition of human A498 cell growth in a cell viability assay.

Cc1ccc(NC(=O)c2cccc(C(C)(C)C#N)c2)cc1Nc1ccc2ncn(C)c(=O)c2c1
IC50 [1]: 352 nM | IC50 [2]: > 4000 nM | IC50 [3]: > 4000 nM | IC50 [4]: > 4000 nM | IC50 [5]: 154 nM | IC50 [6]: 1210 nM | IC50 [7]: > 4000 nM | IC50 [8]: > 4000 nM | IC50 [9]: > 4000 nM | IC50 [10]: 192 nM | IC50 [11]: > 4000 nM | IC50 [12]: 2080 nM | IC50 [13]: > 4000 nM | IC50 [14]: > 4000 nM | IC50 [15]: 40.1 nM | IC50 [16]: > 4000 nM | IC50 [17]: > 4000 nM | IC50 [18]: > 4000 nM | IC50 [19]: 1200 nM | IC50 [20]: > 4000 nM | IC50 [21]: > 4000 nM | IC50 [22]: > 4000 nM | IC50 [23]: > 4000 nM | IC50 [24]: > 4000 nM | IC50 [25]: > 4000 nM | IC50 [26]: 983 nM | IC50 [27]: > 4000 nM | IC50 [28]: > 4000 nM | IC50 [29]: 692 nM | IC50 [30]: 806 nM | IC50 [31]: > 4000 nM | IC50 [32]: > 4000 nM | IC50 [33]: > 4000 nM | IC50 [34]: 1990 nM | IC50 [35]: > 4000 nM | IC50 [36]: > 4000 nM | IC50 [37]: > 4000 nM | IC50 [38]: > 4000 nM | IC50 [39]: > 4000 nM | IC50 [40]: > 4000 nM | IC50 [41]: > 4000 nM | IC50 [42]: > 4000 nM | IC50 [43]: > 4000 nM | IC50 [44]: 2810 nM | IC50 [45]: > 4000 nM | IC50 [46]: > 4000 nM | IC50 [47]: 116 nM | IC50 [48]: 204 nM | IC50 [49]: > 4000 nM | IC50 [50]: > 4000 nM | IC50 [51]: > 4000 nM | IC50 [52]: > 4000 nM | IC50 [53]: > 4000 nM | IC50 [54]: > 4000 nM | IC50 [55]: 376 nM | IC50 [56]: 393 nM | IC50 [57]: > 4000 nM | IC50 [58]: > 4000 nM | IC50 [59]: > 4000 nM | IC50 [60]: > 4000 nM | IC50 [61]: > 4000 nM | IC50 [62]: > 4000 nM | IC50 [63]: > 4000 nM

CCn1c(-c2nonc2N)nc2cnc(Oc3cccc(NC(=O)c4ccc(OCCN5CCOCC5)cc4)c3)cc21 [GSK-269962A]
IC50 [1]: 7.89 nM | IC50 [2]: > 2500 nM | IC50 [3]: > 2500 nM | IC50 [4]: > 2500 nM | IC50 [5]: > 2500 nM | IC50 [6]: > 2500 nM | IC50 [7]: 85.1 nM | IC50 [8]: > 2500 nM | IC50 [9]: > 2500 nM | IC50 [10]: > 2500 nM | IC50 [11]: > 2500 nM | IC50 [12]: > 2500 nM | IC50 [13]: > 2500 nM | IC50 [14]: > 2500 nM | IC50 [15]: > 2500 nM | IC50 [16]: 66.9 nM | IC50 [64]: > 2500 nM | IC50 [17]: > 2500 nM | IC50 [18]: > 2500 nM | IC50 [19]: > 2500 nM | IC50 [20]: > 2500 nM | IC50 [21]: > 2500 nM | IC50 [22]: > 2500 nM | IC50 [23]: > 2500 nM | IC50 [24]: > 2500 nM | IC50 [25]: > 2500 nM | IC50 [26]: > 2500 nM | IC50 [27]: > 2500 nM | IC50 [28]: > 2500 nM | IC50 [29]: > 2500 nM | IC50 [30]: 141 nM | IC50 [31]: > 2500 nM | IC50 [32]: > 2500 nM | IC50 [33]: > 2500 nM | IC50 [34]: > 2500 nM | IC50 [35]: > 2500 nM | IC50 [36]: > 2500 nM | IC50 [37]: 1600 nM | IC50 [38]: > 2500 nM | IC50 [39]: > 2500 nM | IC50 [40]: > 2500 nM | IC50 [41]: > 2500 nM | IC50 [42]: > 2500 nM | IC50 [43]: > 2500 nM | IC50 [44]: > 2500 nM | IC50 [45]: > 2500 nM | IC50 [46]: > 2500 nM | IC50 [47]: > 2500 nM | IC50 [48]: > 2500 nM | IC50 [49]: > 2500 nM | IC50 [50]: > 2500 nM | IC50 [51]: > 2500 nM | IC50 [52]: > 2500 nM | IC50 [53]: > 2500 nM | IC50 [54]: > 2500 nM | IC50 [55]: > 2500 nM | IC50 [56]: 4.6 nM | IC50 [57]: > 2500 nM | IC50 [58]: > 2500 nM | IC50 [59]: > 2500 nM | IC50 [60]: > 2500 nM | IC50 [61]: > 2500 nM | IC50 [62]: > 2500 nM | IC50 [63]: > 2500 nM
